Reference: patent US20260157964A1, “LIPOPHILIC STATIN COMPOSITION WITH IMPROVED SOLUBILITY AND PERMEABILITY AND USES THEREOF” (KOREA INSTITUTE OF SCIENCE AND TECHNOLOGY, priority 2021, published 2026)
Values after ≈ are worked out from the molar mass of the structure shown.

Columns and labels:
[1] = tested on: CT26 cells; test: In vitro cytotoxicity in CT26 cells (CCK-8); assay type: cell-based, mouse
Description: Specifically, 5×10^3 CT26 cells were inoculated on 100 μL of DMEM and a Roswell Park Memorial Institute (RPMI) medium, respectively supplemented with 10% (v/v) FBS and 1% penicillin/streptomycin. […] DL and CD were also treated in the same volume and each of the concentrations. After 24 hours of the culturing, 10 μL of a WST-8 solution [2-2-methoxy-4-nitrophenyl)-3-(4-nitrophenyl)-5-(2,4-disulfophenyl)-2H-tetrazolium monosodium salt] was diluted with 100 μL of each medium, followed by culturing for 2 hours. Then, absorbance was measured using a microplate reader (PerkinElmer multimode plate reader) at 450 nm. Percentages of viable cells are shown by comparing the number of treated cells with that of untreated cells.

[2] = Pharmacokinetics of OP (platinum) in rats, repeated oral dosing; assay type: in vivo, SD rats
Description: After SD rats were orally administered with various concentrations of ODSF repeatedly, the rats were divided into 5 groups (4 rats per group) to evaluate pharmacokinetic properties of OP. The rats were orally administered with a daily dose of 400 μL of OP (10) (OP dispersed in water, 10 mg/kg) or ODSF (2.5), ODSF (10), and ODSF (20) (containing 2.5 mg/kg, 10 mg/kg, and 20 mg/kg OP, respectively), for 14 days. […] Plasma concentrations of OP were measured based on the platinum concentration, after decomposition with nitric acid at 100° C., by inductively coupled plasma-mass spectroscopy (ICP-MS) at a high frequency power of 1450 W, at a coolant flow rate of 12 L/min, at an axillary flow rate of 2.3 L/min, and at a nebulizer flow rate of 0.89 L/min.
Plasma profiles of not only OP in water (10 mg/kg) [OP (10)] but also ODSF including 2.5 mg/kg, 10 mg/kg, and 20 mg/kg OP [ODSF (2.5), ODSF (10), and ODSF (20), respectively] were identified after 2-week continuous metronomic administration in comparison with a single IV bolus dose of 5 mg/kg OP [OP-IV (5)] administered on day 1 and day 14.

[3] = in vivo; conditions: SD, rat
[4] = oral once a day 14 days, 10 mg/kg OP

Compound `COC(=O)[C@H](CCCCN)NC(=O)CC[C@@H](C)[C@H]1CC[C@H]2[C@@H]3CC[C@@H]4C[C@H](O)CC[C@]4(C)[C@H]3C[C@H](O)[C@]12C` [DL, N^α-deoxycholyl-I-lysyl-methylester] has a Cell viability ([1]; CT26, carrier amount matching maximum SIMVA concentration of 200 μg/mL) of 77.1%.

For `O=C1[O][Pt]2([NH][C@@H]3CCCC[C@H]3[NH]2)[O]C1=O` [OP, oxaliplatin], the “AUCinf, on day 14” value ([2]; IV, 5 mg/kg OP) was 8120 ± 2470 ng·h/mL, the “AUClast, on day 14” value ([2]; IV, 5 mg/kg OP) was 5460 ± 1460 ng·h/mL and the “Cmax, on day 14” value ([2]; IV, 5 mg/kg OP) was 1060 ± 337 ng/mL. The Bioavailability ([2]; IV, 5 mg/kg OP (reference)) was 100%, the “T1/2, on day 14” value ([2]; IV, 5 mg/kg OP on day 1 and day 14, platinum, n=4) was 15.8 ± 1.32 h and the “AUCinf, on day 14” value [2, 4] was 1500 ± 196 ng·h/mL. For the same compound, the “AUClast, on day 14” value [2, 4] was 775 ± 124 ng·h/mL, the Bioavailability [2, 4] was 7.09 ± 1.14% and the “Cmax, on day 14” value [2, 4] was 53 ± 14 ng/mL. For the same compound, the “T1/2, on day 14” value [2, 4] was 23.7 ± 0.723 h and the “Tmax, on day 14” value [2, 4] was 0.833 ± 0.289 h.

`CCC(C)(C)C(=O)O[C@H]1C[C@@H](C)C=C2C=C[C@H](C)[C@H](CC[C@@H]3C[C@@H](O)CC(=O)O3)[C@H]21` [SIMVA-IP (10), simvastatin] showed a Tmax ([3]; plasma, ip, 10 mg/kg) of 0.5 h and a half-life ([3]; plasma, ip, 10 mg/kg) of 0.54 h.

Work on `CCC(C)(C)C(=O)O[C@H]1C[C@@H](C)C=C2C=C[C@H](C)[C@H](CC[C@@H]3C[C@@H](O)CC(=O)O3)[C@H]21` [SIMVA, simvastatin] yielded an IC50 ([1]; Mus musculus, CT26, 24 h, read-out: IC50 (concentration of a drug required to kill 50% of cells)) of 183 µg/mL (≈ 437 µM), a half-life ([3]; in vivo, po, 50 mg/kg) of 1.6 h and a Tmax ([3]; plasma, po, 50 mg/kg) of 1.5 h.

Work on `CCC(C)(C)C(=O)O[C@H]1C[C@@H](C)C=C2C=C[C@H](C)[C@H](CC[C@@H]3C[C@@H](O)CC(=O)O3)[C@H]21` [SIMVA in DMSO (50), simvastatin] yielded a half-life ([3]; plasma, po, 50 mg/kg) of 1.22 h.

For `CCC(C)(C)C(=O)O[C@H]1C[C@@H](C)C=C2C=C[C@H](C)[C@H](CC[C@@H]3C[C@@H](O)CC(=O)O3)[C@H]21` [SIMVA-IV (10), simvastatin], the half-life ([3]; plasma, iv, 10 mg/kg) was 0.39 h.
